Results taken from ChEMBL document CHEMBL1201862, “PubChem BioAssay data set” (2004).
Active and inactive are the calls of the source.

What was measured:
Cytochrome P450 3A4 = Cytochrome P450 3A4 (Homo sapiens, UniProt P08684);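 further: CYP3A4 tested as one member of a cytochrome P450 panel screen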
Cytochrome P450 2C19 = Cytochrome P450 2C19 (Homo sapiens, UniProt P33261); experiment: Cytochrome panel assay with activity outcomes. Panel member name: p450-cyp2c19 Compounds with AC50 equal or less than 10 uM are considered active; assay type: functional; details: read-out: AC50
H9c2 = experiment: cells; assay type: functional, cell-based; details: Rattus norvegicus, H9c2, Myocardium;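 further: confirmatory concentration-response retest of ultra-high-throughput screening hits for modulation of myocardial damage; cell death induced by hydrogen peroxide oxidative stress; compound pretreatment for 60 min then peroxide exposure for 2 h; potency is for protecting the cells against peroxide damage rather than for killing them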
Cytochrome P450 1A2 = target: T1, Cytochrome P450 1A2 (Homo sapiens, UniProt P05177);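 further: PubChem cytochrome P450 panel assay, CYP1A2 panel member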
T1 sequence (P05177 whole entry): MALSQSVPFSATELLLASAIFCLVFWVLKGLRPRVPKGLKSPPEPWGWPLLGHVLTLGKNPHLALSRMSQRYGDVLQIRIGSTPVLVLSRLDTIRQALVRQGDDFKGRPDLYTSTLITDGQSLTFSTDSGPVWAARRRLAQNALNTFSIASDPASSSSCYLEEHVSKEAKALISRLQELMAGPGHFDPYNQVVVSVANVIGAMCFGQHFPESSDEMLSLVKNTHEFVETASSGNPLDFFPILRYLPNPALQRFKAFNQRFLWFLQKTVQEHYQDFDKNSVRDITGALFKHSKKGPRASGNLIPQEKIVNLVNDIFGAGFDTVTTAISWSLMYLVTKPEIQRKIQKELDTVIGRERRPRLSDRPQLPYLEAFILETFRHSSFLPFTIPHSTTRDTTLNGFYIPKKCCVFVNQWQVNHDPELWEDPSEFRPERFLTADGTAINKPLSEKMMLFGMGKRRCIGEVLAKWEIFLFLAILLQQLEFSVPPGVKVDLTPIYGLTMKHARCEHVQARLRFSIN

Cytochrome P450 2C9 = Cytochrome P450 2C9 (Homo sapiens, UniProt P11712)
[1] = microbe, parasite or virus in culture; assay type: functional; details: Mycobacterium tuberculosis
[2] = target: T2, Corticotropin-releasing factor receptor 2/Corticotropin-releasing factor-binding protein (Homo sapiens, UniProt P24387+Q13324); experiment: Dose Response confirmation of uHTS hits for small molecule antagonists of the CRF-binding protein and CRF-R2 receptor complex.; assay type: functional; details: read-out: IC50_Mean
T2 sequence (Q13324 whole entry): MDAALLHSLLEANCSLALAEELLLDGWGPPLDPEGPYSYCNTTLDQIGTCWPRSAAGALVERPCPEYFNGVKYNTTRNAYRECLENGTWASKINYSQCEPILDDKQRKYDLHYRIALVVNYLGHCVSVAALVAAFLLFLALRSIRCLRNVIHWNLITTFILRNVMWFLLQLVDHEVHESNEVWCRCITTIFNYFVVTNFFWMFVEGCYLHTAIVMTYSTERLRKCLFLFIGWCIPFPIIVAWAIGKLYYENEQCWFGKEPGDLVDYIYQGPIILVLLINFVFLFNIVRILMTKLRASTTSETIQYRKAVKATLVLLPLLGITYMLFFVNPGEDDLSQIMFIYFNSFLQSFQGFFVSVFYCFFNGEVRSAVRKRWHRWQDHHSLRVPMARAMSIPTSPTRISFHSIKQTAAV
T2 sequence (P24387 whole entry): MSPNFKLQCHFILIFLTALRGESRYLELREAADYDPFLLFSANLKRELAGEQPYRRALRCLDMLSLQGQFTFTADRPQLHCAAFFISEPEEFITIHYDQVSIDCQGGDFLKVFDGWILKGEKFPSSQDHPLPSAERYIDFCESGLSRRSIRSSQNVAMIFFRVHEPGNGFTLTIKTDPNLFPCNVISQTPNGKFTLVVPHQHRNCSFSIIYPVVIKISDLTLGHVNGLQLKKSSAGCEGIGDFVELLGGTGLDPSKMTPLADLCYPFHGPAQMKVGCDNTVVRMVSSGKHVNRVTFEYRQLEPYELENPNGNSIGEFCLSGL

[3] = target: T2, Corticotropin-releasing factor receptor 2/Corticotropin-releasing factor-binding protein; experiment: activators of CRF receptor 2 with binding protein – uHTS hits, confirmation (AID 602473); assay type: functional; details: read-out: EC50_Mean
Cytochrome P450 2D6 = Cytochrome P450 2D6 (Homo sapiens, UniProt P10635);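 further: CYP2D6 member of a cytochrome P450 panel assay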
[4] = tested on: Streptococcus sp. 'group A'; experiment: growth inhibition of control SK(-) GAS strain, dose response, counter-screen for streptokinase expression inhibitor project, luminescence, kanamycin, BacTiterGlo, confirmation (AID 1900); assay type: functional, organism-based
Streptococcus = experiment: Group A Streptococcus viability loss, dose response, counter-screen for streptokinase expression inhibitor project, luminescence, BacTiterGlo (AID 1915); assay type: functional, organism-based;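 further: potency for reduction of bacterial viability or growth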

Sequence of Cytochrome P450 2C19 (P33261 whole entry): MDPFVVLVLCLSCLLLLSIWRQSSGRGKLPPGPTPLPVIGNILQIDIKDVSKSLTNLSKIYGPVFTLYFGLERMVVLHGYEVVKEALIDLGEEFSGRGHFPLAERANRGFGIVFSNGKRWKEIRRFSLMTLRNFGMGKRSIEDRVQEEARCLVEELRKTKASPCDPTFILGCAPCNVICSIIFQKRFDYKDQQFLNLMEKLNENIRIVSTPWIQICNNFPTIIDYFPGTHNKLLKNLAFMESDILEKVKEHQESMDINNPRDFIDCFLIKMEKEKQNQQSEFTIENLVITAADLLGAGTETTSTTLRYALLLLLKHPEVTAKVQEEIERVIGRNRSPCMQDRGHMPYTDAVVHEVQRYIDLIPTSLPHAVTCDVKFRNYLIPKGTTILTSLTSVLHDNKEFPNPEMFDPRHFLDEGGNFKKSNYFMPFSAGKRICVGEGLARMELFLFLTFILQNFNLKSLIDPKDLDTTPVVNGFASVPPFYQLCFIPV
Sequence of Cytochrome P450 3A4 (P08684 whole entry): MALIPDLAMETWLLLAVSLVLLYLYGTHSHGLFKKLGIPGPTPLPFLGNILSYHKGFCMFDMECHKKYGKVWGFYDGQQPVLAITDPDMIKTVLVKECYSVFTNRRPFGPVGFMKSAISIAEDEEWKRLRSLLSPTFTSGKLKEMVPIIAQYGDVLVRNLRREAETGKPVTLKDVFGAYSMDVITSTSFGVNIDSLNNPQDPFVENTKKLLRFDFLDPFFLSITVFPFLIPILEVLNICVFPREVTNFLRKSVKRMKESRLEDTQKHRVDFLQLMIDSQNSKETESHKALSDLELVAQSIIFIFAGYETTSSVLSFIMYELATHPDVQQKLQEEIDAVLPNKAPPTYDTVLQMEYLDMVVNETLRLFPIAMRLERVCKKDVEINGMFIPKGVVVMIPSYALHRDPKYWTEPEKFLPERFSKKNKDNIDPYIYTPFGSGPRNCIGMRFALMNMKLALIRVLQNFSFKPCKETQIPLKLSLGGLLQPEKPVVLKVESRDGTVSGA
Sequence of Cytochrome P450 2D6 (P10635 whole entry): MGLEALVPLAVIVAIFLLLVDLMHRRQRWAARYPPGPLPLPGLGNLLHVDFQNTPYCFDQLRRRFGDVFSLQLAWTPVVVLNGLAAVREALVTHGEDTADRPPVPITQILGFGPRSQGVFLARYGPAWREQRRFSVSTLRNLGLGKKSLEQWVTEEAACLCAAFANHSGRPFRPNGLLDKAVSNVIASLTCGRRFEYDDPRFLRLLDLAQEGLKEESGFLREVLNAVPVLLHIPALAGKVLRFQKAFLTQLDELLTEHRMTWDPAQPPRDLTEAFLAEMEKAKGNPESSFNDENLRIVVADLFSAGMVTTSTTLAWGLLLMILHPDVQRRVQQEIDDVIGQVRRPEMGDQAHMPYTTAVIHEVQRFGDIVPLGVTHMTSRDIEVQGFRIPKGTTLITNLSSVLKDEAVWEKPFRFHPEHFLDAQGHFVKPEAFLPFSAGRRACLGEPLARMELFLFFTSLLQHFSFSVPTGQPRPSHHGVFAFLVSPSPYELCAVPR
Sequence of Cytochrome P450 2C9 (P11712 whole entry): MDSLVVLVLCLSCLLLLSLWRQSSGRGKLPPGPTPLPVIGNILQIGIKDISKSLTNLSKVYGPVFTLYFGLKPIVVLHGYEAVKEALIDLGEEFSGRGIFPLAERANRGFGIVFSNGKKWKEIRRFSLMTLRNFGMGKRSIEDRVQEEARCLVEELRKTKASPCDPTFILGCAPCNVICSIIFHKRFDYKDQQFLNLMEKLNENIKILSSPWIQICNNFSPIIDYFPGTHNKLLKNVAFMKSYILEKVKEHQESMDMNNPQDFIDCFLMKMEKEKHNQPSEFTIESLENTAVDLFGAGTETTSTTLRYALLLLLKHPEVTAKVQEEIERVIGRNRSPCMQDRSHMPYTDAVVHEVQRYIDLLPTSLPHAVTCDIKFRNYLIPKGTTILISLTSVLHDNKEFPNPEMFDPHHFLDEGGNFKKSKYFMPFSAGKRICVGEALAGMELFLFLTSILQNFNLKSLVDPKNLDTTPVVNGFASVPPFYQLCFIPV

With `CCC(C)NS(=O)(=O)c1ccc(OCC(=O)Nc2ccc3c(c2)OCCO3)cc1` (configuration not stated) the AC50 (Cytochrome P450 3A4) was 15.8 µM (inconclusive) and the AC50 (Cytochrome P450 2C19) was 7.08 µM (inconclusive).

In the case of `CCCCCn1nc(C(=O)OCC(=O)c2c(N)n(C)c(=O)n(C)c2=O)c2ccccc2c1=O`, the IC50 (H9c2) is reported as > 79 µM (inactive).

With `CN1CCN(c2ncc3nc(-c4cc(F)cc(F)c4)c(=O)n(CCC#N)c3n2)CC1` the AC50 (Cytochrome P450 3A4) was 15.8 µM (inconclusive), the AC50 (Cytochrome P450 1A2) was 15.8 µM (inconclusive) and the AC50 (Cytochrome P450 2C9) was 31.6 µM (inconclusive).

In the case of `CCOC(=O)Cc1csc(NC(=O)c2c(O)c3c(n(CC(C)C)c2=O)CCCC3)n1`, the CC50 [1] is reported as > 40 µM (active).

With `CCOc1ccc(NC(=O)Nc2cc(C)ccc2OC)cc1` the IC50 [2] was > 47.1 µM (inactive) and the EC50 [3] was > 53 µM (inactive).

In the case of `CC1CCc2cc(F)ccc2N1C(=O)CSc1n[nH]c2c3cc(F)ccc3nc-2n1` (configuration not stated), the AC50 (Cytochrome P450 2D6) is reported as 14.1 µM (inconclusive) and the AC50 (Cytochrome P450 2C19) is reported as 0.562 µM (inconclusive).

For `NC(=O)/C(=C\c1ccncc1)c1cccc2ccccc12`, the AC50 (Cytochrome P450 2D6) was 2 µM (inconclusive).

With `Cc1ccc(NC(=O)CSC(C)C(=O)OCc2cc(=O)oc3cc(O)ccc23)cc1` (configuration not stated) the IC50 (H9c2) was > 79 µM (inactive).

With `OC(c1ccccc1)(c1ccc(F)cc1)C(c1ccccc1)N1CCOCC1` (configuration not stated) the AC50 (Cytochrome P450 2D6) was 14.1 µM (inconclusive).

For `Cc1cc(C)n(C(=O)CNC(=O)c2ccccc2Br)n1`, the IC50 [2] was > 47.1 µM (inactive) and the EC50 [3] was > 53 µM (inactive).

In the case of `Cn1cccc1C(=O)N1CCC2(CC1)CN(Cc1cc(C(F)(F)F)cc(C(F)(F)F)c1)C2`, the AC50 (Cytochrome P450 1A2) is reported as 10 µM (inconclusive) and the AC50 (Cytochrome P450 2D6) is reported as 25.1 µM (inconclusive).

In the case of `Cc1ccc(S(=O)(=O)N2CCN(C(=O)CCc3nc(O)c4ccccc4n3)CC2)c(C)c1`, the IC50 (H9c2) is reported as > 79 µM (inactive).

For `CC#CCCCC(=O)Nc1ccccc1C(=O)O`, the IC50 [2] was > 47.1 µM (inactive) and the EC50 [3] was > 53 µM (inactive).

In the case of `O=c1c(-c2cc(F)cc(F)c2)nc2cncnc2n1Cc1ccccc1Cl`, the AC50 (Cytochrome P450 3A4) is reported as 15.8 µM (inconclusive) and the AC50 (Cytochrome P450 1A2) is reported as 5.01 µM (inconclusive).

With `COc1cccc(Cn2c(=O)c(-c3cccs3)nc3cnc(Nc4cccc(OC)c4)nc32)c1` the AC50 (Cytochrome P450 3A4) was 12.6 µM (inconclusive), the AC50 (Cytochrome P450 1A2) was 2.51 µM (inconclusive) and the AC50 (Cytochrome P450 2C9) was 0.794 µM (inconclusive).

For `C/C(CC(=O)Nc1ccc(Cl)c(C(F)(F)F)c1)=N\NC(=O)c1ccccc1O`, the EC50 [4] was 2.77 µM (active) and the EC50 (Streptococcus) was 3.68 µM (active).

With `O=C(Cc1ccccc1[N+](=O)[O-])NCCSCc1c(F)cccc1Cl` the AC50 (Cytochrome P450 1A2) was 5.62 µM (inconclusive) and the AC50 (Cytochrome P450 2D6) was 2.82 µM (inconclusive).

In the case of `COc1ccccc1CN1CCCC2(CCN(C(=O)Oc3ccccc3)CC2)C1`, the AC50 (Cytochrome P450 3A4) is reported as 15.8 µM (inconclusive).

For `COc1cccc(Nc2nc3ccccc3n3nnnc23)c1`, the IC50 (H9c2) was > 79 µM (inactive).

For `C=CCNC(S)=NNc1ncnc2sc3c(c12)CC(C)(C)OC3`, the AC50 (Cytochrome P450 3A4) was 17.8 µM (inconclusive), the AC50 (Cytochrome P450 1A2) was 12.6 µM (inconclusive) and the AC50 (Cytochrome P450 2C19) was 8.91 µM (inconclusive). For the same compound, the AC50 (Cytochrome P450 2C9) was 8.91 µM (inconclusive).

With `Cc1nnc(-c2cnn(-c3ccccc3)c2N)n1Cc1ccccc1` the AC50 (Cytochrome P450 3A4) was 25.1 µM (inconclusive) and the AC50 (Cytochrome P450 2C9) was 39.8 µM (inconclusive).

In the case of `COc1ccccc1C(=O)O/N=C1/CCCc2c1ccc(OC)c2[N+](=O)[O-]`, the AC50 (Cytochrome P450 3A4) is reported as 22.4 µM (inconclusive).

With `CC(=O)Nc1cccc(NC(=O)c2cc(-c3cccnc3)nc3ccc(Cl)cc23)c1` the IC50 (H9c2) was > 79 µM (inactive).

For `COc1cccc(Cn2c(=O)c(-c3cccs3)nc3cnc(N(C)C)nc32)c1`, the AC50 (Cytochrome P450 3A4) was 15.8 µM (inconclusive), the AC50 (Cytochrome P450 1A2) was 15.8 µM (inconclusive) and the AC50 (Cytochrome P450 2C19) was 0.00631 µM (inconclusive).

With `Cc1ccc(NC(=O)COC(=O)CCC(=O)c2cccs2)c(Br)c1` the IC50 [2] was > 47.1 µM (inactive) and the EC50 [3] was > 53 µM (inactive).

For `CCOC(=O)c1csc(Nc2nc3ccc(F)cc3s2)n1`, the EC50 [4] was 5.24 µM (active) and the EC50 (Streptococcus) was 11.4 µM (active).
